Measured values: patent US20160046592A1, “PHARMACEUTICAL COMPOSITION FOR THE TREATMENT OF DIABETES” (Ajinomoto Co., Inc., priority 2013, published 2016)
Counter-ions that a name gives are not always drawn.

Molecular target: T1, PPAR-α (Homo sapiens, UniProt Q07869)
T1 construct: expressed in transfected cells; host or cells: CV-1 (African green monkey kidney)
T1 sequence (Q07869 167-468): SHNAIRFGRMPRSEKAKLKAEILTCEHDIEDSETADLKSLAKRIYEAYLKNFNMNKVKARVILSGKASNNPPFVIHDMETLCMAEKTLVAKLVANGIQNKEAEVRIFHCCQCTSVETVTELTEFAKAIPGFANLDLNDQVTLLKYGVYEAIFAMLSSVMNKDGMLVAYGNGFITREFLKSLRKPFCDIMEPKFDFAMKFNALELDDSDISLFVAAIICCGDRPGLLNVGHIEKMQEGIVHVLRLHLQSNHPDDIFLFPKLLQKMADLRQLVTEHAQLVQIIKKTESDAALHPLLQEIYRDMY
Assay: Measurement of PPAR-α activity (GAL4 luciferase reporter assay in CV-1 cells)
Assay type: cell-based
Conditions: 100(A/B): A = maximum PPAR-α activity of test compound at 3, 10, 30 and 100 μM, B = activity of the compound of WO/2011/058154 at 100 μM, 18 to 20 hours; for Emax: read-out: Relative fold induction (%) of PPAR α
Description: The PPAR-α activity was measured according to the published article (THE JOURNAL OF BIOLOGICAL CHEMISTRY Vol. 270, No 0.22: 12953-12956, 1995).
Plasmids used for the PPAR-α activity measurement were constructed as follows. A luciferase expression plasmid (UAS×5-TK-Luc) used was obtained by introducing a sequence in which five yeast GAL4-binding sequences are linked in tandem into a portion upstream of a thymidine kinase promoter of pTAL-Luc (Takara Bio Inc., 6252-1). A PPAR-α receptor expression plasmid (hGR-GAL4-hPPARα) used was obtained by introducing a human GR N-terminal region (1-76aa), a yeast GAL4 DNA-binding region (1-147aa), and a PPARα ligand-binding region (167-468aa) between Not I and Sal I sites of pExchange-1 Core Vector (Invitrogen, 211176).
A reporter assay was conducted by the following method using African green monkey kidney-derived CV-1 cells. The CV-1 cells were seeded in a 96-well plate (Thermo Fisher Scientific K.K., 4938) at 2×10^4 cells/well by using a 10% FBS-containing DMEM (NACALAI TESQUE, INC., 0845874) medium. After culturing under conditions of 37° C. and 5% CO2 for 2 hours, the cells were transfected with the plasmids. The transfection was conducted by using Lipofectamine LTX (Invitrogen, 15338-100) according to the attached manual. The plasmid solution was prepared by adding a mixture solution of the luciferase expression plasmid and the PPAR-α receptor expression plasmid to OPTI-MEM I (Invitrogen, 11058-021). After the transfection, the test compound was added, and the cells were cultured at 37° C. in the presence of 5% CO2 for 18 to 20 hours. After the culturing, the luciferase activity was measured with Luminescensor JNR (ATTO) by using Bright-Glo (Promega, E2620).
The fold induction of PPAR-α by each test compound was calculated by the following method. A relative fold induction (%) of PPAR-α by the test compound was defined as 100 (A/B), where A represents the maximum value of the PPAR-α activities of the test compound at 3 μM, 10 μM, 30 μM, and 100 μM, and B represents the PPAR-α activity of the compound of WO/2011/058154 at 100 μM.

SMILES	Emax [%]	Relative fold induction (%) of PPAR α [%]
CSc1cc(F)c(F)cc1-c1ccc(OCc2cccc(C(=O)N(CC(=O)O)Cc3noc(C)n3)c2)cc1 [Example 69, 2-[[3-[[4-(4,5-Difluoro-2-methylsulfanyl-phenyl)phenoxy]methyl]benzoyl]-[(5-methyl-1,2,4-oxadiazol-3-yl)methyl]amino]acetic Acid]	23	–
CSc1cc(F)c(F)cc1-c1ccc(OCc2cccc(C(=O)N(CCNS(C)(=O)=O)CC(=O)O)c2)cc1 [Example 17, 2-[[3-[[4-(4,5-Difluoro-2-methylsulfanyl-phenyl)phenoxy]methyl]benzoyl]-[2-(methanesulfonamido)ethyl]amino]acetic Acid]	13	–
CSc1cc(F)c(F)cc1-c1ccc(OCc2cccc(C(=O)N(CCNC(C)=O)CC(=O)O)c2)cc1 [Example 44, 2-[2-Acetamidoethyl-[3-[[4-(4,5-difluoro-2-methylsulfanyl-phenyl)phenoxy]methyl]benzoyl]amino]acetic Acid]	25	–
CSc1cc(F)c(F)cc1-c1ccc(OCc2cccc(C(=O)N(CCN3CCS(=O)(=O)CC3)CC(=O)O)c2)cc1 [Example 41, 2-[[3-[[4-(4,5-Difluoro-2-methylsulfanyl-phenyl)phenoxy]methyl]benzoyl]-[2-(1,1-dioxo-1,4-thiazinan-4-yl)ethyl]amino]acetic Acid Trifluoroacetate]	12	–
CSc1cc(F)c(F)cc1-c1ccc(OCc2cccc(C(=O)N(CC(=O)O)Cc3ccnn3C)c2)cc1 [Example 55, 2-[[3-[[4-(4,5-Difluoro-2-methylsulfanyl-phenyl)phenoxy]methyl]benzoyl]-[(2-methylpyrazol-3-yl)methyl]amino]acetic Acid]	11	–
COCCCN(CC(=O)O)C(=O)c1cccc(COc2ccc(-c3cc(F)c(F)cc3SC)cc2)c1 [Example 30, 2-[[3-[[4-(4,5-Difluoro-2-methylsulfanyl-phenyl)phenoxy]methyl]benzoyl]-(3-methoxypropyl)amino]acetic Acid]	83	–
CSc1cc(F)c(F)cc1-c1ccc(OCc2cccc(C(=O)N(CC(=O)O)Cc3coc(C)n3)c2)cc1 [Example 67, 2-[[3-[[4-(4,5-Difluoro-2-methylsulfanyl-phenyl)phenoxy]methyl]benzoyl]-[(2-methyloxazol-4-yl)methyl]amino]acetic Acid]	19	–
CSc1cc(F)c(F)cc1-c1ccc(OCc2cccc(C(=O)N3C(C(N)=O)CC[C@H]3C(=O)O)c2)cc1 (single isomer, unassigned) [Example 57, (2S,5R) or (2S,5S)-5-Carbamoyl-1-[3-[[4-(4,5-difluoro-2-methylsulfanyl-phenyl)phenoxy]methyl]benzoyl]pyrrolidine-2-carboxylic Acid]	6.7	–
CSc1cc(F)c(F)cc1-c1ccc(OCc2cccc(C(=O)N(CC(=O)O)Cc3ccncc3)c2)cc1 [Example 19, 2-[[3-[[4-(4,5-Difluoro-2-methylsulfanyl-phenyl)phenoxy]methyl]benzoyl]-(4-pyridylmethyl)amino]acetic Acid Trifluoroacetate]	21	–
CC(C)(O)CCN(CC(=O)O)C(=O)c1cccc(COc2ccc(-c3cc(F)c(F)c4ccoc34)cc2)c1 [Example 18, 2-[[3-[[4-(4,5-Difluorobenzofuran-7-yl)phenoxy]methyl]benzoyl]-(3-hydroxy-3-methyl-butyl)amino]acetic Acid]	23	–
CSc1cc(F)c(F)cc1-c1ccc(OCc2cccc(C(=O)N(CC(=O)O)CC3CCCNC3)c2)cc1 (stereo not drawn) [Example 50, 2-[[3-[[4-(4,5-Difluoro-2-methylsulfanyl-phenyl)phenoxy]methyl]benzoyl]-(3-piperidylmethyl)amino]acetic Acid Trifluoroacetate]	4.8	–
CSc1cc(F)c(F)cc1-c1ccc(OCc2cccc(C(=O)N(CC(=O)O)CC3CCS(=O)(=O)C3)c2)cc1 (stereo not drawn) [Example 46, 2-[[3-[[4-(4,5-Difluoro-2-methylsulfanyl-phenyl)phenoxy]methyl]benzoyl]-[(1,1-dioxothiolan-3-yl)methyl]amino]acetic Acid]	4.6	–
CSc1cc(F)c(F)cc1-c1ccc(OCc2cccc(C(=O)N3CC[C@H](O)[C@H]3C(=O)O)c2)cc1 [Example 5, (2S,3S)-1-[3-[[4-(4,5-Difluoro-2-methylsulfanyl-phenyl)phenoxy]methyl]benzoyl]-3-hydroxy-pyrrolidine-2-carboxylic Acid]	10	–
CSc1cc(F)c(F)cc1-c1ccc(OCc2cccc(C(=O)N(CCn3cncn3)CC(=O)O)c2)cc1 [Example 70, 2-[[3-[[4-(4,5-Difluoro-2-methylsulfanyl-phenyl)phenoxy]methyl]benzoyl]-[2-(1,2,4-triazol-1-yl)ethyl]amino]acetic Acid]	14	–
CSc1cc(F)c(F)cc1-c1ccc(OCc2cccc(C(=O)N(CC(=O)O)[C@@H](C)C(N)=O)c2)cc1 [Example 22, 2-[[(1S)-2-Amino-1-methyl-2-oxo-ethyl]-[3-[[4-(4,5-difluoro-2-methylsulfanyl-phenyl)phenoxy]methyl]benzoyl]amino]acetic Acid]	14	–
CNC(=O)CN(CC(=O)O)C(=O)c1cccc(COc2ccc(-c3cc(F)c(F)c4ccoc34)cc2)c1 [Example 15, 2-[[3-[[4-(4,5-Difluorobenzofuran-7-yl)phenoxy]methyl]benzoyl]-[2-(methylamino)-2-oxo-ethyl]amino]acetic Acid]	12	–
O=C(O)[C@@H]1[C@H](O)CCN1C(=O)c1cccc(COc2ccc(-c3cc(F)c(F)c4ccoc34)cc2)c1 [Example 3, (2S,3R)-1-[3-[[4-(4,5-Difluorobenzofuran-7-yl)phenoxy]methyl]benzoyl]-3-hydroxy-pyrrolidine-2-carboxylic Acid]	11	–
COC[C@H](C)N(CC(=O)O)C(=O)c1cccc(COc2ccc(-c3cc(F)c(F)c4ccoc34)cc2)c1 [Example 80, 2-[[3-[[4-(4,5-Difluorobenzofuran-7-yl)phenoxy]methyl]benzoyl]-[(1S)-2-methoxy-1-methyl-ethyl]amino]acetic Acid]	91	–
CSc1cc(F)c(F)cc1-c1ccc(OCc2cccc(C(=O)N(CCC#N)CC(=O)O)c2)cc1 [Example 7, 2-[2-Cyanoethyl-[3-[[4-(4,5-difluoro-2-methylsulfanyl-phenyl)phenoxy]methyl]benzoyl]amino]acetic Acid]	16	–
NC(=O)C1CC[C@@H](C(=O)O)N1C(=O)c1cccc(COc2ccc(-c3cc(F)c(F)c4ccoc34)cc2)c1 (single isomer, unassigned) [Example 4, (2S,5R) or (2S,5S)-5-Carbamoyl-1-[3-[[4-(4,5-difluorobenzofuran-7-yl)phenoxy]methyl]benzoyl]pyrrolidine-2-carboxylic Acid]	–	10
NC(=O)CN(CC(=O)O)C(=O)c1cccc(COc2ccc(-c3cc(F)c(F)c4ccoc34)cc2)c1 [Example 1, 2-[(2-Amino-2-oxo-ethyl)-[3-[[4-(4,5-difluorobenzofuran-7-yl)phenoxy]methyl]benzoyl]amino]acetic Acid]	12	–
CSc1cc(F)c(F)cc1-c1ccc(OCc2cccc(C(=O)N(CC(=O)O)Cc3cscn3)c2)cc1 [Example 71, 2-[[3-[[4-(4,5-Difluoro-2-methylsulfanyl-phenyl)phenoxy]methyl]benzoyl]-(thiazol-4-ylmethyl)amino]acetic Acid]	20	–
CSc1cc(F)c(F)cc1-c1ccc(OCc2cccc(C(=O)N(CC(=O)O)CC3CCN(C)CC3)c2)cc1 [Example 37, 2-[[3-[[4-(4,5-Difluoro-2-methylsulfanyl-phenyl)phenoxy]methyl]benzoyl]-[(1-methyl-4-piperidyl)methyl]amino]acetic Acid Trifluoroacetate]	10	–
COC(C)CN(CC(=O)O)C(=O)c1cccc(COc2ccc(-c3cc(F)c(F)cc3SC)cc2)c1 (stereo not drawn) [Example 45, 2-[[3-[[4-(4,5-Difluoro-2-methylsulfanyl-phenyl)phenoxy]methyl]benzoyl]-(2-methoxypropyl)amino]acetic Acid]	25	–
